Consider two compounds from paper PMC4076294 (Journal of the American Chemical Society, 2014).

Structures are written as SMILES. Where “and” joins values, the source holds several entries; their conditions need not be identical. Identical values can stand only once.

The conditions of data set [1]: comparison values; cited from earlier work.
The test system of the next data set is A2780. Nature of the data set: MTT assay. Format: cell-based, human. To be noted: read-out: IC50 at 48 h; A2780, 48 h. (In general: Tetrazolium dyes change colour on reduction, which living cells bring about.)
The subject of data set [2] is A2780 ovarian cancer cells. Description: LIVE/DEAD cell viability assay. Type of data set: cell-based, human. Particulars: 10 μM, 48 h.
Data set [3] concerns nuclear DNA of A2780 cells. Description: DNA platination experiment. Format: cell-based, human. Particulars: 5 μM, 5 h, then 16 h in fresh media.

`CC(=O)[O][Pt]([NH2])([Cl])([Cl])([NH]C1CCCCC1)[O]C(C)=O` [satraplatin]: in data set [1], the “half-life in blood (t1/2)” value is 6.3 min and ~6 min.
What is called IC50 is the concentration that gives 50% inhibition. As for `N.N.[Cl][Pt][Cl]` [cisplatin], in the data set with A2780, the half-maximal inhibitory concentration (IC50) came to 6.35 ± 1.39 µM. For the same compound, the “LIVE/DEAD cell assay outcome” value in data set [2] is given as “mostly survived”. Also, the “extent of DNA platination” value in data set [3] is 36.4 ± 5.5 Pt adducts/10^6 nucleotides.
